What was measured:
SG3199 = compound: CC1=CN2[C@@H](C1)C=NC3=CC(=C(C=C3C2=O)OC)OCCCCCOC4=C(C=C5C(=C4)N=C[C@@H]6CC(=CN6C5=O)C)OC [SG3199]; settings: max 0.001 µM
In short: (§1)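 Plates with 1536 wells received cancer cell lines in 7.5 μl of DMEM/F12 or RPMI containing 10% FBS. After 24 hours at 37°C and 5% CO2, cells were dosed for 72 hours with final DMSO typically 0.2%, and viability was read by CellTiter-Glo 2.0 luminescence scaled between blank-well and DMSO-well means. The single-agent IC50 was taken from a logistic fit of the dose responses made with a non-linear mixed effects model, that logistic curve having two parameters.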

MK-2206 = compound: NC1(c2ccc(-c3nc4ccn5c(=O)[nH]nc5c4cc3-c3ccccc3)cc2)CCC1 [MK-2206]; settings: max 10 µM
In short: as §1

AZD5991 = compound: Cc1c2c(nn1C)CSCc1cc(n(C)n1)CSc1cc(c3ccccc3c1)OCCCc1c(C(=O)O)n(C)c3c-2c(Cl)ccc13 [AZD5991]; settings: max 1 µM
In short: as §1

AZD7648 = compound: Cc1cc2ncnn2cc1Nc1ncc2c(n1)n(C1CCOCC1)c(=O)n2C [AZD7648]; settings: max 10 µM
In short: as §1

Dasatinib = compound: CC1=C(C(=CC=C1)Cl)NC(=O)C2=CN=C(S2)NC3=CC(=NC(=N3)C)N4CCN(CC4)CCO [Dasatinib]; settings: max 2 µM
In short: as §1

5-Fluorouracil = compound: O=c1[nH]cc(F)c(=O)[nH]1 [5-Fluorouracil]; settings: max 20 µM
In short: as §1

AZD1390 = compound: CC(C)n1c(=O)n(C)c2cnc3cc(F)c(-c4ccc(OCCCN5CCCCC5)nc4)cc3c21 [AZD1390]; settings: max 0.3 µM
In short: as §1

Etoposide = compound: COc1cc([C@@H]2c3cc4c(cc3[C@@H](O[C@@H]3O[C@@H]5CO[C@@H](C)O[C@H]5[C@H](O)[C@H]3O)[C@H]3COC(=O)[C@H]23)OCO4)cc(OC)c1O [Etoposide]; settings: max 10 µM
In short: as §1

AZD5153 = compound: COc1nnc2ccc(N3CCC(c4ccc(OCCN5CCN(C)C(=O)[C@H]5C)cc4)CC3)nn12 [AZD5153]; settings: max 1 µM
In short: as §1

Venetoclax = compound: CC1(C)CCC(CN2CCN(c3ccc(C(=O)NS(=O)(=O)c4ccc(NCC5CCOCC5)c([N+](=O)[O-])c4)c(Oc4cnc5[nH]ccc5c4)c3)CC2)=C(c2ccc(Cl)cc2)C1 [Venetoclax]; settings: max 1 µM
In short: as §1

Paclitaxel = compound: CC(=O)O[C@H]1C(=O)[C@@]2(C)[C@H]([C@H](OC(=O)c3ccccc3)[C@]3(O)C[C@H](OC(=O)[C@H](O)[C@@H](NC(=O)c4ccccc4)c4ccccc4)C(C)=C1C3(C)C)[C@]1(OC(C)=O)CO[C@@H]1C[C@@H]2O [Paclitaxel]; settings: max 3 µM
In short: as §1

Doxorubicin = compound: COc1cccc2c1C(=O)c1c(O)c3c(c(O)c1C2=O)C[C@@](O)(C(=O)CO)C[C@@H]3O[C@H]1C[C@H](N)[C@H](O)[C@H](C)O1 [Doxorubicin]; settings: max 1 µM
In short: as §1

AZD2811 = compound: CCN(CCO)CCCOc1ccc2c(Nc3cc(CC(=O)Nc4cccc(F)c4)[nH]n3)ncnc2c1 [AZD2811]; settings: max 1 µM
In short: as §1

AZD8186 = compound: C[C@@H](Nc1cc(F)cc(F)c1)c1cc(C(=O)N(C)C)cc2c(=O)cc(N3CCOCC3)oc12 [AZD8186]; settings: max 10 µM
In short: as §1

Prexasertib = compound: COc1cccc(OCCCN)c1-c1cc(Nc2cnc(C#N)cn2)n[nH]1 [Prexasertib]; settings: max 1 µM
In short: as §1

AZD6738 = compound: C[C@@H]1COCCN1C2=NC(=NC(=C2)C3(CC3)[S@](=N)(=O)C)C4=C5C=CNC5=NC=C4 [AZD6738]; settings: max 10 µM
In short: as §1

Taselisib = compound: Cc1nc(-c2cn3c(n2)-c2ccc(-c4cnn(C(C)(C)C(N)=O)c4)cc2OCC3)n(C(C)C)n1 [Taselisib]; settings: max 10 µM
In short: as §1

Crizotinib = compound: C[C@@H](Oc1cc(-c2cnn(C3CCNCC3)c2)cnc1N)c1c(Cl)ccc(F)c1Cl [Crizotinib]; settings: max 10 µM
In short: as §1

AZD0156 = compound: CN(C)CCCOc1ccc(-c2ccc3ncc4c(c3c2)n(C2CCOCC2)c(=O)n4C)cn1 [AZD0156]; settings: max 3 µM
In short: as §1

AZD1775 = compound: C=CCn1c(=O)c2cnc(Nc3ccc(N4CCN(C)CC4)cc3)nc2n1-c1cccc(C(C)(C)O)n1 [AZD1775]; settings: max 3 µM
In short: as §1

Selumetinib = compound: Cn1cnc2c(F)c(Nc3ccc(Br)cc3Cl)c(C(=O)NOCCO)cc21 [Selumetinib]; settings: max 10 µM
In short: as §1

Gefitinib = compound: COc1cc2ncnc(Nc3ccc(F)c(Cl)c3)c2cc1OCCCN1CCOCC1 [Gefitinib]; settings: max 10 µM
In short: as §1

[1] = compound: O=C(Nc1ccc2[nH]nc(-c3ccncc3)c2c1)[C@@H]1CCN(CC(=O)N2CCN(c3ccc(-c4ncccn4)cc3)CC2)C1; settings: max 5 µM
In short: as §1

Savolitinib = compound: C[C@@H](c1ccc2nccn2c1)n1nnc2ncc(-c3cnn(C)c3)nc21 [Savolitinib]; settings: max 1 µM
In short: as §1

SRA737 = compound: N#Cc1cnc(Nc2cc(NC[C@H]3CNCCO3)c(C(F)(F)F)cn2)cn1 [SRA737]; settings: max 10 µM
In short: as §1

Olaparib = compound: O=C(c1cc(Cc2n[nH]c(=O)c3ccccc23)ccc1F)N1CCN(C(=O)C2CC2)CC1 [Olaparib]; settings: max 10 µM
In short: as §1

SN-38 = compound: CCc1c2c(nc3ccc(O)cc13)-c1cc3c(c(=O)n1C2)COC(=O)[C@]3(O)CC [SN-38]; settings: max 0.3 µM
In short: as §1

Alisertib = compound: COc1cc(Nc2ncc3c(n2)-c2ccc(Cl)cc2C(c2c(F)cccc2OC)=NC3)ccc1C(=O)O [Alisertib]; settings: max 10 µM
In short: as §1

Gemcitabine = compound: Nc1ccn([C@@H]2O[C@H](CO)[C@@H](O)C2(F)F)c(=O)n1 [Gemcitabine]; settings: max 0.3 µM
In short: as §1

AZD5363 = compound: C1CN(CCC1(C(=O)N[C@@H](CCO)C2=CC=C(C=C2)Cl)N)C3=NC=NC4=C3C=CN4 [AZD5363]; settings: max 10 µM
In short: as §1

Palbociclib = compound: CC(=O)c1c(C)c2cnc(Nc3ccc(N4CCNCC4)cn3)nc2n(C2CCCC2)c1=O [Palbociclib]; settings: max 10 µM
In short: as §1

AZD4320 = compound: CN(CC[C@H](CSC1=CC=CC=C1)NC2=C(C=C(C=C2)S(=O)(=O)NC(=O)C3=CC=C(C=C3)N4CCC(CC4)[C@H](C5=CC=CC=C5C6=CC=C(C=C6)Cl)O)S(=O)(=O)C(F)(F)F)CCO [AZD4320]; settings: max 1 µM
In short: as §1

Lapatinib = compound: CS(=O)(=O)CCNCc1ccc(-c2ccc3ncnc(Nc4ccc(OCc5cccc(F)c5)c(Cl)c4)c3c2)o1 [Lapatinib]; settings: max 10 µM
In short: as §1

Carboplatin = compound: C1CC(C1)(C(=O)[O-])C(=O)[O-].N.N.[Pt+2] [Carboplatin]; settings: max 10 µM
In short: as §1

Trametinib = compound: CC(=O)Nc1cccc(-n2c(=O)n(C3CC3)c(=O)c3c(Nc4ccc(I)cc4F)n(C)c(=O)c(C)c32)c1 [Trametinib]; settings: max 1 µM
In short: as §1

Cell Line	IC50, cell viability 72 h (SG3199) [nM]	IC50, cell viability 72 h (MK-2206) [nM]	IC50, cell viability 72 h (AZD5991) [nM]	IC50, cell viability 72 h (AZD7648) [nM]	IC50, cell viability 72 h (Dasatinib) [nM]	IC50, cell viability 72 h (5-Fluorouracil) [nM]	IC50, cell viability 72 h (AZD1390) [nM]	IC50, cell viability 72 h (Etoposide) [nM]	IC50, cell viability 72 h (AZD5153) [nM]	IC50, cell viability 72 h (Venetoclax) [nM]	IC50, cell viability 72 h (Paclitaxel) [nM]	IC50, cell viability 72 h (Doxorubicin) [nM]	IC50, cell viability 72 h (AZD2811) [nM]	IC50, cell viability 72 h (AZD8186) [nM]	IC50, cell viability 72 h (Prexasertib) [nM]	IC50, cell viability 72 h (AZD6738) [nM]	IC50, cell viability 72 h (Taselisib) [nM]	IC50, cell viability 72 h (Crizotinib) [nM]	IC50, cell viability 72 h (AZD0156) [nM]	IC50, cell viability 72 h (AZD1775) [nM]	IC50, cell viability 72 h (Selumetinib) [nM]	IC50, cell viability 72 h (Gefitinib) [nM]	IC50, cell viability 72 h [1] [nM]	IC50, cell viability 72 h (Savolitinib) [nM]	IC50, cell viability 72 h (SRA737) [nM]	IC50, cell viability 72 h (Olaparib) [nM]	IC50, cell viability 72 h (SN-38) [nM]	IC50, cell viability 72 h (Alisertib) [nM]	IC50, cell viability 72 h (Gemcitabine) [nM]	IC50, cell viability 72 h (AZD5363) [nM]	IC50, cell viability 72 h (Palbociclib) [nM]	IC50, cell viability 72 h (AZD4320) [nM]	IC50, cell viability 72 h (Lapatinib) [nM]	IC50, cell viability 72 h (Carboplatin) [nM]	IC50, cell viability 72 h (Trametinib) [nM]
EB-3 (Burkitt's Lymphoma)	> 1	> 10000	> 1000	> 10000	> 2000	> 20000	> 300	1020	128	> 1000	88.7	194	> 1000	> 10000	86.4	7040	> 10000	7290	> 3000	555	> 10000	> 10000	> 5000	> 1000	> 10000	> 10000	52.9	> 10000	> 300	> 10000	> 10000	> 1000	> 10000	> 10000	> 1000
FLO-1 (Esophageal Adenocarcinoma)	> 1	> 10000	> 1000	> 10000	64.8	7080	> 300	2550	793	> 1000	5.42	225	> 1000	> 10000	99.3	> 10000	8830	9360	> 3000	266	> 10000	> 10000	> 5000	> 1000	> 10000	> 10000	201	7300	93.8	> 10000	> 10000	> 1000	> 10000	> 10000	> 1000
KYM-1 (Rhabdomyosarcoma)	> 1	> 10000	> 1000	> 10000	> 2000	8560	> 300	668	54.8	> 1000	5.57	485	> 1000	> 10000	33.8	2640	> 10000	2940	> 3000	926	> 10000	> 10000	> 5000	> 1000	846	> 10000	23.5	> 10000	5.74	7860	522	> 1000	> 10000	> 10000	> 1000
KYSE-70 (Esophageal Squamous Cell Carcinoma)	> 1	> 10000	> 1000	> 10000	> 2000	> 20000	> 300	> 10000	> 1000	> 1000	> 3000	> 1000	> 1000	> 10000	241	> 10000	4070	> 10000	> 3000	> 3000	> 10000	> 10000	> 5000	> 1000	> 10000	> 10000	> 300	> 10000	> 300	> 10000	> 10000	> 1000	> 10000	> 10000	> 1000
LAMA-84 (Chronic Myelogenous Leukemia)	> 1	5120	> 1000	> 10000	< 2	> 20000	> 300	8280	146	> 1000	37	> 1000	> 1000	> 10000	17.3	2020	> 10000	527	> 3000	351	1570	> 10000	915	> 1000	2110	> 10000	24.6	305	24.6	> 10000	3090	486	> 10000	> 10000	16.3

Reference: the supplement of paper PMC11061612
